The target of experiment [1] is T1, Angiotensin-converting enzyme (Homo sapiens, UniProt P12821). Put plainly: Inhibition of recombinant human ACE using (7-methoxycoumarin-4-yl)acetyl-Arg-Pro-Pro-Gly-Phe-Ser-Ala-Phe-Lys(2,4-dinitrophenyle)-OH as substrate after 30 mins by fluorescence assay.
Experiment [2] has as its target T1, Angiotensin-converting enzyme. Put plainly: Inhibition of ACE (unknown origin).

T1 sequence (P12821 whole entry): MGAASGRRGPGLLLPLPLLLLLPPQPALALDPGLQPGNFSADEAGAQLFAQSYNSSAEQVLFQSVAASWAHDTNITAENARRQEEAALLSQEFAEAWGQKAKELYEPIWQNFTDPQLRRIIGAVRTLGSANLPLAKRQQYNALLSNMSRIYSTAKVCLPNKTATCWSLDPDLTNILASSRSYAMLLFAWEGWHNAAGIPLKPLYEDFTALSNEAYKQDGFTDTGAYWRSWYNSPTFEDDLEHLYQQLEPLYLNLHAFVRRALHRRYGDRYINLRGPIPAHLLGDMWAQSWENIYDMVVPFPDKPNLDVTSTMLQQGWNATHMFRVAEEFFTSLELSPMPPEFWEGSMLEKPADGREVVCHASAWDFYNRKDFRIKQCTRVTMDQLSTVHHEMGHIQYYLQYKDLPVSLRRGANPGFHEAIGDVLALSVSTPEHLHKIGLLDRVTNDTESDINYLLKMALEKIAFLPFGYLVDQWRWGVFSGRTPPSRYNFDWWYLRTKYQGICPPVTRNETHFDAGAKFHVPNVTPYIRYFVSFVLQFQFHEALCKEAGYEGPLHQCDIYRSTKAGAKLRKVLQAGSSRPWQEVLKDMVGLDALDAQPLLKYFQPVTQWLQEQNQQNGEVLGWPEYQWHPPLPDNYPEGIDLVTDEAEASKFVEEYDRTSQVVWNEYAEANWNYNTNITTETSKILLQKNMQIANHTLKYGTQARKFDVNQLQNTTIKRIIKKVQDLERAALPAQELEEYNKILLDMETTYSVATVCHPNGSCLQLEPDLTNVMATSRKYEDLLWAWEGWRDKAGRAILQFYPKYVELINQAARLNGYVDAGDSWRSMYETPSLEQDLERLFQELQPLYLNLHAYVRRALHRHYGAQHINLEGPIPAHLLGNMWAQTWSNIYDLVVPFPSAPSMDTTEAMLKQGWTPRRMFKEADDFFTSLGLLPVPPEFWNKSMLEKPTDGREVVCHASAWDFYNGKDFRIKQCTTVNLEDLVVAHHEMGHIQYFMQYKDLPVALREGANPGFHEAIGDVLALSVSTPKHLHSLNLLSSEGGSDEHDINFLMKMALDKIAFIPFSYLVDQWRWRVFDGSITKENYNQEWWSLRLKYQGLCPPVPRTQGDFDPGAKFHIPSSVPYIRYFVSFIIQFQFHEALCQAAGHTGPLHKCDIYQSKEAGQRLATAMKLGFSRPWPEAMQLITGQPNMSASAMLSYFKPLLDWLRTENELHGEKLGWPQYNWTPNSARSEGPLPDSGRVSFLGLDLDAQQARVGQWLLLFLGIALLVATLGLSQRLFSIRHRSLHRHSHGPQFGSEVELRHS

For the compound `CCCC(N[C@@H](C)C(=O)N1[C@H](C(=O)O)C[C@@H]2CCCC[C@@H]21)P(=O)(O)O` (stereo partly drawn), the IC50 in experiment [1] came out at 30 nM.

`CCC[C@H](N[C@@H](C)C(=O)N1[C@H](C(=O)O)C[C@@H]2CCCC[C@@H]21)C(=O)OCC` [PERINDOPRIL]: in experiment [2], the IC50 is 1.5 nM.

As to `C[C@H](NC(CCc1ccccc1)P(=O)(O)O)C(=O)N1[C@H](C(=O)O)C[C@@H]2CCCC[C@@H]21` (stereo partly drawn), the IC50 in experiment [1] worked out at 40 nM.

(Values after ChEMBL document CHEMBL2439978, “Perindopril and ramipril phosphonate analogues as a new class of angiotensin converting enzyme inhibitors” (Bioorg Med Chem, 2013).)
